Measurements as given in patent US20010053848A1, “Hetero-oligomeric G protein-coupled receptors as novel drug targets” (priority 2000, published 2001).
Where two headings read alike, the source gives them in different places. Marks after values point to notes of the source that are not given here.

Columns and labels:
[1] = biological target: T1, delta318 SSTR5-D2R putative hetero-oligomers (Homo sapiens, UniProt P14416+P35346, DEL319-364); test: cell-based; conditions: for effect on SST inhibition of forskolin-stimulated cAMP: pertussis toxin 100 ng/ml pretreatment 2 h, sulpiride 10^−4 M
T1 construct: expressed in transfected cells

[2] = biological target: HA-SSTR5 and D2R hetero-oligomer (Homo sapiens, UniProt P14416+P35346); test: pbFRET microscopy, CHO-K1 cells co-expressing HA-SSTR5 and D2R; type: cell-based
Experimental: Generally, FRET efficiencies are determined indirectly by measuring changes in the quantum yield of any competitive donor deactivation process upon introduction of an acceptor molecule. Donor photobleaching represents such a competitive process which is exploited in pbFRET-microscopy. The effective FRET efficiency E is calculated from the photobleaching time constants of the donor obtained in the absence (τD−A) and presence (τD+A) of acceptor according to: [formula]
CHO-K1 cells, stably cotransfected with HA-hSSTR5 and D2R, were grown on glass coverslips for 24 hours, treated with various agonists/antagonists for 30 minutes at 37° C., washed and fixed in 1% paraformaldehyde for 30 minutes on ice. […] Coverslips were mounted on microscope slides and used for pbFRET-microscopy the day after.
pbFRET experiments were performed on a Leica DMLB fluorescence microscope equipped with epi-illumination. An OSRAM HBO 100 W Hg lamp was used as excitation light source and the objective was a Leica pl-fluotar 40× oil immersion lens. […] For each cell, a sequence of 20 images was acquired during donor-photobleaching. One image was collected every 4 s with exposure time of 1 s. Exposure as well as time delays were software controlled.
Images were corrected for dark current, background and flatness. For analysis of the photobleaching decay, only the high-intensity plasma membrane region was considered, low intensity background and intracellular regions were masked.
HA-hSSTR5 and D2R were specifically labeled with FITC (donor) and rhodamine (acceptor), respectively using mouse monoclonal antibody against HA and rabbit polyclonal anti-D2R antibody, followed by reaction with FITC conjugated goat anti-mouse and rhodamine conjugated goat anti-rabbit secondary antibody. […] FIG. 4A Left panel: HA-SSTR5 (visualized with mouse anti-HA mAb and FITC-conjugated goat anti-mouse IgG). FIG. 4A Middle panel: D2R (rabbit polyclonal antibody and rhodamine-conjugated goat anti-rabbit IgG). […] Magnification: ×630.
The decrease in donor fluorescence intensity due to photobleaching during prolonged exposure to excitation light was monitored in the absence (FIG. 4B, I-III) or presence (FIG. 4B, IV-VI) of acceptor, i.e. in the potential presence of an additional donor deactivation process, FRET. Cells were reacted with primary antibodies and either with FITC-conjugated goat-anti-mouse IgG (donor in the absence of acceptor) (I-III), or with both FITC-conjugated goat-anti-mouse and rhodamine-conjugated goat-anti-rabbit IgG (donor in the presence of acceptor) (IV-VI). FIG. 4B I. Photobleaching of donor in the absence of acceptor (only selection of images shown). For analysis of the photobleaching decay, only the high-intensity membrane region was considered, low intensity background and intracellular regions were masked (black). […] FIG. 4B II. The average fluorescence intensity of each image was plotted versus the time that the cell had been exposed to excitation light. […] FIG. 4B III. The decrease of fluorescence intensity was analysed for each pixel of the unmasked region and fitted to a single-exponential decay. The resulting time constants were plotted in the histogram shown. […] Photobleaching of donor in the presence of acceptor. […] FIG. 4B, IV-VI.
The photobleaching decay was analyzed for the plasma membrane regions, both on a pixel-by-pixel basis (FIG. 4, III & VI) as well as averaged over each image (FIG. 4, II & V).

[3] = biological target: wild type hSSTR5 and DOR (Homo sapiens, UniProt P35346+P41143); conditions: for effect on inhibition of radioligand binding induced by GTPγS: [125I] LTT SST-28 radioligand
Text: LTT SST-28 binding by the cotransfectants. In order to characterize G protein function, wild type hSSTR5 and DOR were stably coexpressed in CHO-K1 cells.

[4] = biological target: HA-SSTR5 and D2R (Homo sapiens, UniProt P14416+P35346); conditions: GTPγS 10^−4M, 30 min at 37° C.
[5] = biological target: T2, delta C-tail hSSTR5 with DOR (Homo sapiens, UniProt P35346+P41143, DEL319-364); test: Inhibition of forskolin-stimulated cAMP, delta C-tail hSSTR5 co-expressed with DOR in CHO-K1 cells; type: cell-based; conditions: naltrindole (10^−5 M)
T2 construct: expressed in transfected cells

[6] = biological target: T3, DOR and SSTR5 hetero-oligomer (Homo sapiens, UniProt P35346+P41143); test: Inhibition of FSK-stimulated cAMP, hSSTR5/DOR cotransfectants; type: cell-based; conditions: SST-14 plus naltrindole
T3 construct: expressed in transfected cells

[7] = i.c.v. in monkeys; cited from earlier work
[8] = intrathecal or epidural; post-operative and neoplastic pain; cited from earlier work

HA-SSTR5 and D2R hetero-oligomer, sequence (P35346 whole entry): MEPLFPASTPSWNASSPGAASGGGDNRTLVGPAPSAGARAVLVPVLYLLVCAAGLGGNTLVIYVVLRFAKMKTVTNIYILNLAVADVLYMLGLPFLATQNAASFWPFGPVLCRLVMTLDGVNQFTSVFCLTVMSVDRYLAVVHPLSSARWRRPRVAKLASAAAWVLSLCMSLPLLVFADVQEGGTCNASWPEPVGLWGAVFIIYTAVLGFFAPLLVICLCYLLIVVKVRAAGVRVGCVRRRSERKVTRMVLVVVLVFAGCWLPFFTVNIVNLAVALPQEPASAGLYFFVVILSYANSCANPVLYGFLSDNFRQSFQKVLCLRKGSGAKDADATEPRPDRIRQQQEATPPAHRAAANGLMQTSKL
HA-SSTR5 and D2R hetero-oligomer, sequence (P14416 whole entry): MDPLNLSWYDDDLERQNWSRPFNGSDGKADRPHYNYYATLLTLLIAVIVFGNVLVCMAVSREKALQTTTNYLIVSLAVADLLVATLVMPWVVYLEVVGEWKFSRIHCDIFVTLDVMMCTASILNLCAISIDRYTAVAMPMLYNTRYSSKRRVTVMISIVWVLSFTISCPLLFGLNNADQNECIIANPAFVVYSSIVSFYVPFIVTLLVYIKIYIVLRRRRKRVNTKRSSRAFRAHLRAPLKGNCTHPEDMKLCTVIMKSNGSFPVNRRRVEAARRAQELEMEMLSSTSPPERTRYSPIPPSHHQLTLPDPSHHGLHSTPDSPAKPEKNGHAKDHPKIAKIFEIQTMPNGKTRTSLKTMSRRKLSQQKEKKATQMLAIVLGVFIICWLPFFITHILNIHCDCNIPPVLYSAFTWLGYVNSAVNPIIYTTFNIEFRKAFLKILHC
wild type hSSTR5 and DOR, sequence (P35346 whole entry): as the sequence (P35346 whole entry) above
wild type hSSTR5 and DOR, sequence (P41143 whole entry): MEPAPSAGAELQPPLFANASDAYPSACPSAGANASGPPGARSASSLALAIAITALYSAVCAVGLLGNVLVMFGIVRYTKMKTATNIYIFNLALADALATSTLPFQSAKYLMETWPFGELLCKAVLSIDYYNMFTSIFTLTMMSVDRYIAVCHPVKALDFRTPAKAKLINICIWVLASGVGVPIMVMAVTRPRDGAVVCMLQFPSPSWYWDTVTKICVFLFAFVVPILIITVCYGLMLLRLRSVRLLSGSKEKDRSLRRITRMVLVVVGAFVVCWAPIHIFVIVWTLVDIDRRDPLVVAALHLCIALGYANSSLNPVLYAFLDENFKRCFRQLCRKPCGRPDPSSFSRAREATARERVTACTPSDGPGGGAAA
T1 sequence (P14416 whole entry, stated change not applied): as the sequence (P14416 whole entry) above
T1 sequence (P35346 1-318, stated change not applied): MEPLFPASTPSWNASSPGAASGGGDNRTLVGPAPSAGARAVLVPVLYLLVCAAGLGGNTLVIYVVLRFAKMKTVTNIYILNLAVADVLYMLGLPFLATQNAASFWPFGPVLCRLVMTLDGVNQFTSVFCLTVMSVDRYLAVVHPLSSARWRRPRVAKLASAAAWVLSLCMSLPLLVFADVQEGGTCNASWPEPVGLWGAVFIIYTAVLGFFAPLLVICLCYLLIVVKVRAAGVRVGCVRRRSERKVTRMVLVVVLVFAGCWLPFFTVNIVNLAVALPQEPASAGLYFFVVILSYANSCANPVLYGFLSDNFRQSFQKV
T2 sequence (P35346 1-318 limits assumed, stated change not applied): as the sequence (P35346 1-318, stated change not applied) above
T2 sequence (P41143 whole entry, stated change not applied): as the sequence (P41143 whole entry) above
HA-SSTR5 and D2R, sequence (P35346 whole entry): as the sequence (P35346 whole entry) above
HA-SSTR5 and D2R, sequence (P14416 whole entry): as the sequence (P14416 whole entry) above
T3 sequence (P35346 whole entry): as the sequence (P35346 whole entry) above
T3 sequence (P41143 whole entry): as the sequence (P41143 whole entry) above

NCCc1ccc(O)c(O)c1 [DA, dopamine]
inhibition at 1 µM ([1]; CHO-K1, read-out: maximum inhibition of forskolin-stimulated cAMP): 30 ± 1.7%
E[%] average effective FRET-efficiency [2]: 16±2%
τavg[S] mean photobleaching time constant, D + A [2]: D + A: 21.3 ± 0.3 S
τavg[S] mean photobleaching time constant, D − A [2]: D − A: 17.9 ± 0.3 S

C[C@@H](NC(=O)[C@@H](N)Cc1ccc(O)cc1)C(=O)NCC(=O)N(C)[C@@H](Cc1ccccc1)C(=O)NCCO [DAMGO, [D-Ala^2, N-MePhe^4, Gly-ol^5]-Enkephalin]
effect on inhibition of radioligand binding induced by GTPγS [3]: without effect

Nc1nc2c(ncn2[C@@H]2O[C@H](COP(=O)(O)OP(=O)(O)OP(O)(O)=S)[C@@H](O)[C@H]2O)c(=O)[nH]1 [GTPγS]
decrease in specific radioligand binding [4]: 41±3%

CCc1cc(Cl)c(OC)c(C(=O)NC[C@@H]2CCCN2CC)c1O [eticlopride]
E[%] average effective FRET-efficiency [2]: 3±3%
τavg[S] mean photobleaching time constant, D + A [2]: D + A: 19.4 ± 0.4 S
τavg[S] mean photobleaching time constant, D − A [2]: D − A: 18.9 ± 0.3*^) S

Oc1ccc2c3c1O[C@H]1c4[nH]c5ccccc5c4C[C@@]4(O)[C@@H](C2)N(CC2CC2)CC[C@]314 [naltrindole]
effect on SST-14 inhibition of FSK-stimulated cAMP [5]: abolished
SST-14 induced cAMP inhibition in the presence of the ligand [6]: 20±4%
effect on inhibition of radioligand binding induced by GTPγS [3]: reversed
G-protein coupling efficiency ([3]; enhancement by DOR ligand): reduced coupling

C[C@@H](O)[C@@H]1NC(=O)[C@H](CCCCN)NC(=O)[C@@H](Cc2c[nH]c3ccccc23)NC(=O)[C@H](Cc2ccccc2)NC(=O)[C@@H](NC(=O)[C@H](N)Cc2ccccc2)CSSC[C@@H](C(=O)N[C@H](CO)[C@@H](C)O)NC1=O [octreotide]
neurobehavioral effect [7]: Parkinsonian syndrome
analgesic effect [8]: powerful analgesic effects

CCN1CCCC1CNC(=O)c1cc(S(N)(=O)=O)ccc1OC (stereo not shown) [sulpiride]
effect on SST inhibition of forskolin-stimulated cAMP [1]: completely abolished
τavg[S] mean photobleaching time constant, D − A ([2]; donor in absence of acceptor, ± SEM): D − A: 17.9 ± 0.3 S
τavg[S] mean photobleaching time constant, D + A ([2]; donor in presence of acceptor, ± SEM): D + A: 19.2 ± 0.3 S

pertussis toxin
effect on SST inhibition of forskolin-stimulated cAMP [1]: completely abolished
